Measurements published in patent publication EP0210284B1, “1,3-Dithiol-2-ylidene derivatives” (priority 1985, dated 1987).
Where two headings read alike, the source gives them in different places.

What was measured:
[1] = system: Fatty Liver Induced by Carbon Tetrachloride; test: Therapeutic effect on fatty liver induced by carbon tetrachloride; type: in vivo, rats (SD strain); design: Apoprotein: unit not given here
Method: Carbon tetrachloride (1ml/kg) was subcutaneously administered to rats (SD strain, ? , 38 week-old, n=5) for 4 days. Upon expiration of 3 days from the administration of carbon tetrachloride, Compound 6 was orally given successively for 7 days at the dose of 50mg/kg. On the 8th day, the animals were sacrificed by exsanguination. The therapeutic effect was evaluated by examining the content of triglyceride in the liver and the concentration of apoprotein B in the plasma. […]

[2] = system: Acute Liver Injury Induced by D-Galactosamine; test: Protective effect on acute liver injury induced by D-galactosamine; type: in vivo, rats (SD strain); conditions: 50mg/kg orally twice daily for 6 days, D-galactosamine 200mg/kg x 3 i.p.; for Glucose / P-GPT: plasma 48 hours after first injection; for Glucose: D-Galactosamine alone 32±4, Normal 142±4; for P-GPT: D-Galactosamine alone 4825±590, Normal 29±2; for ALP: alkaline phosphatase in plasma, D-Galactosamine alone 176±6, Normal 500±63
Method: A test compound was dissolved or suspended in olive oil and orally administered twice daily for 6 days at a dose of 50mg/kg to rats (SD strain, ? , 225 ±15g, 7 weeks-old, n=5). On the 6th day, D-galactosamine (200mg/kg x 3) was intraperitoneally administered three times at 3-hour intervals. 48 Hours after the first injection of D-galactosamine, the animals were sacrificed by exsanguination from the abdominal aorta. The protective effect was evaluated by examining the biochemical parameters (p-GPT, glucose, alkaline phosphatase) in plasma.

[3] = system: Acute Liver Injury Induced by Carbon Tetrachloride; test: Protective effect on acute liver injury induced by carbon tetrachloride; type: in vivo, mice (ddY mice); conditions: for Liver Damage Index: 50mg/kg orally in olive oil 6 hours before carbon tetrachloride (0.05ml/kg orally), visual score 0: normal, 2: slightly, 4: distinctly, 6: remarkably injured, n=5, CCl4 alone 6.0; for inhibition in vivo at 50 mg/kg: Mus musculus, po, 50mg/kg orally 6 hours before carbon tetrachloride (0.05ml/kg orally), CCl4 alone 0, Normal 100
Method: A test compound was dissolved or suspended in olive oil and administered orally at a dose of 50mg/kg to mice (ddY mice, ? , 23 ± 2g, n=5). After 6 hours, carbon tetrachloride (0.05ml/kg) was administered orally. 24 Hours after the administration of carbon tetrachloride, BSP (sodium sulfobromophthalene; 75mg/kg) was administered intravenously. Thirty minutes later, the cardiac blood was collected, and GPT (glutamic-pyruvic transaminase) activity and the retention rate of BSP in the plasma were measured. Further, the liver injury immediately after the collection of the blood was visually observed and evaluated by the following score for liver damage index. 0: normal 2: Slightly injured 4: distinctly injured 6: remarkably injured

[4] = system: Protein Synthesis in Liver; test: Effect on protein synthesis in liver; type: in vivo, rats (Wister strain); conditions: 100mg/kg orally for 3 days
Method: Compound 6 was dissolved in olive oil and orally administered successively for 3 days at a dose of 100mg/kg to rats (Wister strain, ? , 180±10g, 6 week-old, n=5). 24 Hours after the administration of the test compound was completed, the animals were sacrificed. The effect on the protein synthesis in the liver was evaluated by determining the liver weight and protein content.

mice (ddY mice) = test: Acute toxicity test; type: in vivo; conditions: oral in olive oil, mortality one week after the administration, n=5
Method: A test compound was dissolved or suspended in olive oil and administered orally to mice (ddY mice, ? , 23±2g, n=5). The acute toxicity value (LD₅₀) was determined from the mortality one week after the administration.

[5] = 24.5 h, retention rate of BSP in plasma 30 minutes after BSP 75mg/kg i.v., read-out: % Prophylaxis BSP
[6] = plasma GPT about 24.5 hours after CCl4, read-out: % Prophylaxis p-GPT

CC(=O)C(C(=O)c1ccccc1)=C1SC=CS1 [Compound 6, 2-(1,3-dithiol-2-ylidene)-1-phenyl-1,3-butanedione]
effect for curing the fatty liver ([1]; 50mg/kg orally for 7 days, rats with CCl4-induced fatty liver, statement in words): significant effect for curing the fatty liver | Apoprotein ([1]; apoprotein B in plasma, carbon tetrachloride 1ml/kg s.c. for 4 days, compound 50mg/kg orally for 7 days, CCl4 alone 66± 2, Normal 125± 8): 112± 23 | Triglyceride ([1]; carbon tetrachloride 1ml/kg s.c. for 4 days, compound 50mg/kg orally for 7 days, liver content on the 8th day, CCl4 alone 99± 6, Normal 33± 5): 33± 7 mg/g-liver | Glucose [2]: 81 ± 9 mg/dL | P-GPT [2]: 908±248 U/l | ALP [2]: 398±45 U/l | Liver Damage Index [3]: 0.4 | inhibition in vivo at 50 mg/kg [3, 5]: 103% | inhibition in vivo at 50 mg/kg [3, 6]: 100% | Liver Weight ([4]; 24 hours after last administration, Control 6.3±0.1): 8.6±0.3 g/100g b.w. | Liver Protein ([4]; 24 hours after last administration, Control 883±79): 1247±62 mg/100g b.w. | effect for stimulating the protein metabolic function of the liver ([4]; statement in words): substantial effect for stimulating the protein metabolic function of the liver | acute toxicity value (LD50) (mice (ddY mice)): at least 2 g

CC(=O)C(C(=O)c1nc2ccccc2[nH]1)=C1SC=CS1 [Compound 47, 2-(1,3-dithiol-2-ylidene)-1-(2-benzimidazolyl)-1,3-butanedione]
Glucose [2]: 55 ± 2 mg/dL | P-GPT [2]: 2938±694 U/l | ALP [2]: 287±25 U/l | Liver Damage Index [3]: 2.4 | inhibition in vivo at 50 mg/kg [3, 5]: 103% | inhibition in vivo at 50 mg/kg [3, 6]: 91%
